Holding throughout (assay): Kinase profiling in a biochemical assay panel (mobility shift assays and ELISA), %-inhibition at 1 μM; selectivity entropy
(In general: In an ELISA, binding on a coated surface is turned into a signal by an enzyme label.)

The target of assay [1] is T1, panel of more than 300 wild-type and mutant kinases (313 kinase panel) (Homo sapiens, UniProt O14920).
T1 sequence (O14920 1-756): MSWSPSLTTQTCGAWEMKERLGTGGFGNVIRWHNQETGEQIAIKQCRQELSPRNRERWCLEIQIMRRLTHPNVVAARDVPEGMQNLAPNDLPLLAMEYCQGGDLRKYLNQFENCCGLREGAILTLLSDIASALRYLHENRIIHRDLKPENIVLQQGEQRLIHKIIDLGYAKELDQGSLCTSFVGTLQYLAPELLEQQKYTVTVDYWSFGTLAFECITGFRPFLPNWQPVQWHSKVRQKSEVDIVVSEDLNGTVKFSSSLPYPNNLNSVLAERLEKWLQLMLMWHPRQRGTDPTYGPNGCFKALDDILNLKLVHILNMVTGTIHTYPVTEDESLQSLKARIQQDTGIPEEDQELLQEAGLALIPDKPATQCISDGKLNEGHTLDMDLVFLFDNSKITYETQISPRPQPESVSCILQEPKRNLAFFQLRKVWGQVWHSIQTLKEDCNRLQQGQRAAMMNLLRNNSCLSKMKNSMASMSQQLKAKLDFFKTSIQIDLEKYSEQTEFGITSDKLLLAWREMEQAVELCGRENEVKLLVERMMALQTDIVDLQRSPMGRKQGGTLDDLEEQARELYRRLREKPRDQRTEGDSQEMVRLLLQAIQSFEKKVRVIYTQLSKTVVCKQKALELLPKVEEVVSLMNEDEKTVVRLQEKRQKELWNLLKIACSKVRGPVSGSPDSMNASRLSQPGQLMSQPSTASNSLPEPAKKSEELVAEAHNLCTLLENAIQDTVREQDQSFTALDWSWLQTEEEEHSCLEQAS

The target in assay [2] is T2, panel of more than 300 wild-type and mutant kinases (313 kinase panel) (Homo sapiens, UniProt P51817).
T2 sequence (P51817 1-358): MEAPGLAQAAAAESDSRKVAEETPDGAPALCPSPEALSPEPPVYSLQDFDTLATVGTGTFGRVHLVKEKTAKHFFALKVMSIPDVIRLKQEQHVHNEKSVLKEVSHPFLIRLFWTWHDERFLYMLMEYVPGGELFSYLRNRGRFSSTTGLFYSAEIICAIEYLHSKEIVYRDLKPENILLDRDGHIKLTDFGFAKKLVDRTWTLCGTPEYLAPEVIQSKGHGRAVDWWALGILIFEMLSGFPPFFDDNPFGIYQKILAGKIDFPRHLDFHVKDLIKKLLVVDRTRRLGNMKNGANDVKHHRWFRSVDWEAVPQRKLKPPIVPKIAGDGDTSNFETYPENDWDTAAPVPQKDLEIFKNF
To be noted: kinase PRKX; 1 μM.

Assay [3] concerns the target panel of more than 300 wild-type and mutant kinases (313 kinase panel) (Homo sapiens, UniProt P06213). To be noted: kinase INSR; compound at 1 μM.
Assay [4] addresses panel of more than 300 wild-type and mutant kinases (313 kinase panel) (Homo sapiens, UniProt Q9UPE1). To be noted: kinase MSSK1; 1 μM.
The target in assay [5] is T3, panel of more than 300 wild-type and mutant kinases (313 kinase panel) (Homo sapiens, UniProt Q13163).
T3 sequence (Q13163 1-448): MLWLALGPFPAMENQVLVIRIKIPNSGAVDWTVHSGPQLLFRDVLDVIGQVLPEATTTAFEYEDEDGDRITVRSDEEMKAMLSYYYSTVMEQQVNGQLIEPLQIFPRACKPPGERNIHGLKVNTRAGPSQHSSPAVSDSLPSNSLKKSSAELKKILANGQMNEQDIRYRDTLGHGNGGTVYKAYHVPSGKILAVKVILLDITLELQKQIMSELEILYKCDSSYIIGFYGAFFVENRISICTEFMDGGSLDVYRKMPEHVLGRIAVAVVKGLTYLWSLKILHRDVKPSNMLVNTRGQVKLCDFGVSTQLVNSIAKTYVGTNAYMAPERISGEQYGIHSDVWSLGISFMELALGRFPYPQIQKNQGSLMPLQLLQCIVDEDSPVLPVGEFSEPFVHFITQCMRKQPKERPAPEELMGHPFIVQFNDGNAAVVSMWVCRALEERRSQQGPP
To be noted: kinase MAP2K5; compound at 1 μM.

Assay [6] addresses panel of more than 300 wild-type and mutant kinases (313 kinase panel) (Homo sapiens, UniProt Q13233). To be noted: kinase MAP3K1; compound at 1 μM.
The target of assay [7] is panel of more than 300 wild-type and mutant kinases (313 kinase panel) (Homo sapiens, UniProt O94804). To be noted: kinase LOK; compound at 1 μM.
Sequence of panel of more than 300 wild-type and mutant kinases (313 kinase panel) (Homo sapiens, UniProt O94804) (O94804 whole entry, change not shown): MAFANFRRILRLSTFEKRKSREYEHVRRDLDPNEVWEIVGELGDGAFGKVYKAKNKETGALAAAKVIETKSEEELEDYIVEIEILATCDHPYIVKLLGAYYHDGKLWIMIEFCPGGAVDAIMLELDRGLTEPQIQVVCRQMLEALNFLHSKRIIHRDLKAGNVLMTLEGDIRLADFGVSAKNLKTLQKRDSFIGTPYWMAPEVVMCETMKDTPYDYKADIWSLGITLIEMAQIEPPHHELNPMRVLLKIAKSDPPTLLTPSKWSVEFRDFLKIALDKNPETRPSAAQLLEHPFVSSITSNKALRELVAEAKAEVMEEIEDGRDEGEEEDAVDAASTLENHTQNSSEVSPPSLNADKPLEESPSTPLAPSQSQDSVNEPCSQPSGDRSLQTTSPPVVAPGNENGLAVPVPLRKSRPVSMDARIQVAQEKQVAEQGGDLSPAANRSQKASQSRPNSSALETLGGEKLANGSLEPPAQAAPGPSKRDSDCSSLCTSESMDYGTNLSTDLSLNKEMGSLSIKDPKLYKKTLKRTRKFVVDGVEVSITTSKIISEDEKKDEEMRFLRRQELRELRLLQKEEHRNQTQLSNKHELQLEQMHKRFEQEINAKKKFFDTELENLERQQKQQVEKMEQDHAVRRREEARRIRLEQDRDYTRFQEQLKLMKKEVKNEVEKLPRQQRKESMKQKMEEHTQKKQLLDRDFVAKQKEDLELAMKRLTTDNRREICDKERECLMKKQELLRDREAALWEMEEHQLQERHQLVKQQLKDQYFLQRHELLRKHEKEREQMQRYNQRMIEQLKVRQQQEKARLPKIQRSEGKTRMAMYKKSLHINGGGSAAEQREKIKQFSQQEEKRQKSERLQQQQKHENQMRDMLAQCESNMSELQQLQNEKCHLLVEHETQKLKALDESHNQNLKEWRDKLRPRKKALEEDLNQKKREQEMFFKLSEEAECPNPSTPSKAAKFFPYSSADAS

Sequence of panel of more than 300 wild-type and mutant kinases (313 kinase panel) (Homo sapiens, UniProt P06213) (P06213 28-1382, stated change not applied): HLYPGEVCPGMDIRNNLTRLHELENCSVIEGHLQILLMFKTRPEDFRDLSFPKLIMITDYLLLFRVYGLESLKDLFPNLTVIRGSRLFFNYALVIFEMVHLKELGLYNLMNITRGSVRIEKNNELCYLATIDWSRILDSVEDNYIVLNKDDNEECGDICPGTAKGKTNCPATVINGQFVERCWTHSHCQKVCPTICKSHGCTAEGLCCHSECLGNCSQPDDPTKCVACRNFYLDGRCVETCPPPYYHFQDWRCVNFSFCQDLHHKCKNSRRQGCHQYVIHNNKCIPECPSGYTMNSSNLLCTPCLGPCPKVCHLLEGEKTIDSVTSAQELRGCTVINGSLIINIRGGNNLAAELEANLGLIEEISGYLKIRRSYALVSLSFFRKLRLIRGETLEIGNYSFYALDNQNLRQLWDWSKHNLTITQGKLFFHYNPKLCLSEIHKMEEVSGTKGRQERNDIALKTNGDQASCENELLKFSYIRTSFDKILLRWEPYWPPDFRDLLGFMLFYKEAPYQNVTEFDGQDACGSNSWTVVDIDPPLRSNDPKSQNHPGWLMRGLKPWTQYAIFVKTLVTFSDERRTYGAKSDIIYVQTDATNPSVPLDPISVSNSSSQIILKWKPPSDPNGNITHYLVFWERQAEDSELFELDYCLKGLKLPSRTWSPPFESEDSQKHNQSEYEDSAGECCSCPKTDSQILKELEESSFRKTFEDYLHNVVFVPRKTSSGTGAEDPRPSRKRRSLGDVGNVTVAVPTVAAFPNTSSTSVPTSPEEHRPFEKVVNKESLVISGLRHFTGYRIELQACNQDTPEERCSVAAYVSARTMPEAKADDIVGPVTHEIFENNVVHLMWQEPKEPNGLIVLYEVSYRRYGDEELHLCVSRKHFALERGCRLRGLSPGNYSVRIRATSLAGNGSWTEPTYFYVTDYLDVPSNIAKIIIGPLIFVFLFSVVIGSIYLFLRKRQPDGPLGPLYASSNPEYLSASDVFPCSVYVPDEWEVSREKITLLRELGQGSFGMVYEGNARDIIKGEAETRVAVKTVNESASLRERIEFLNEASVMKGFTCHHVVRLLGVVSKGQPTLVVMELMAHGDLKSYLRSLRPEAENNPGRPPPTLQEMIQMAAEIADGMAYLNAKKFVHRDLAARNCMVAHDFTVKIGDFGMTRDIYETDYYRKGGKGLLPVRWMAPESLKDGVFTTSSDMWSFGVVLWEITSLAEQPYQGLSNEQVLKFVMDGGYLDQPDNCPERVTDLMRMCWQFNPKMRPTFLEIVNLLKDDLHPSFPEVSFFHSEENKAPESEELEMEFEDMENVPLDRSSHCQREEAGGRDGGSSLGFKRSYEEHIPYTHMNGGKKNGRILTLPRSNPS
Sequence of panel of more than 300 wild-type and mutant kinases (313 kinase panel) (Homo sapiens, UniProt Q13233) (Q13233 whole entry, change not shown): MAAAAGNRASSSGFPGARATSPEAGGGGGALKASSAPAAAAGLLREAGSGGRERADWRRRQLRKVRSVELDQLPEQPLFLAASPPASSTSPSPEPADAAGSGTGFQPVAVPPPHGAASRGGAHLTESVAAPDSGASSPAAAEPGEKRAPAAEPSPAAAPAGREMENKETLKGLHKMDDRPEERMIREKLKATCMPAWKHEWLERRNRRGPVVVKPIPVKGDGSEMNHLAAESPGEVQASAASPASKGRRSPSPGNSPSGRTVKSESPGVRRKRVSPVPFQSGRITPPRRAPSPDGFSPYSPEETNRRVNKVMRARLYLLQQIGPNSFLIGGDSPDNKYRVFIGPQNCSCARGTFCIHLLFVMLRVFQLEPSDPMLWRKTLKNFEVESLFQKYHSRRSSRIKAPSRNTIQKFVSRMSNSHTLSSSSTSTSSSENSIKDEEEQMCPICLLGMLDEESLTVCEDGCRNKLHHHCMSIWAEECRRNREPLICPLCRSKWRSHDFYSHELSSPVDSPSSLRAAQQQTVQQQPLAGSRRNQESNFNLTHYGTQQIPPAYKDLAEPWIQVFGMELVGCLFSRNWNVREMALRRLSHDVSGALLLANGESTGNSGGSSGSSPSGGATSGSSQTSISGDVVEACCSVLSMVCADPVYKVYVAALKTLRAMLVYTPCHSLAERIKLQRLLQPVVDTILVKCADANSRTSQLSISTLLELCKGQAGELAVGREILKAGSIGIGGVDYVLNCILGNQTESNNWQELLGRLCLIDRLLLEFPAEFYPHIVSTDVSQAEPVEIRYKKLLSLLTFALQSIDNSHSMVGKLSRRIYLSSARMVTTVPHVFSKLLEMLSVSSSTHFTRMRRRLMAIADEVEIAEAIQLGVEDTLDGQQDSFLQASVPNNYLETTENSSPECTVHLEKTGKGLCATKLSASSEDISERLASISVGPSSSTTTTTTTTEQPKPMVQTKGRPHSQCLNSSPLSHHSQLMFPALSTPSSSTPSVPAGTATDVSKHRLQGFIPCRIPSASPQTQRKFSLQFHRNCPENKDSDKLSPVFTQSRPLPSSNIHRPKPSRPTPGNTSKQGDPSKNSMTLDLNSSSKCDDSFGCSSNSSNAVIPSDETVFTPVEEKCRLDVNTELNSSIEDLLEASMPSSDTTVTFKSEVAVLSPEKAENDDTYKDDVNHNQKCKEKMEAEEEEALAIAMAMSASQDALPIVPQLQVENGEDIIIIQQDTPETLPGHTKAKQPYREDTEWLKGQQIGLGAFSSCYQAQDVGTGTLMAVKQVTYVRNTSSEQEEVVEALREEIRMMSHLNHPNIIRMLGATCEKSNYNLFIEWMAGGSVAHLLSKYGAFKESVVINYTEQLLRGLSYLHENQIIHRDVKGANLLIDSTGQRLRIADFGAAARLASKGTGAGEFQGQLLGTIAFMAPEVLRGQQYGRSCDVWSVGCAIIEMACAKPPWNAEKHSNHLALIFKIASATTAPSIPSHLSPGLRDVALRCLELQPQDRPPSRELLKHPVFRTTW

Take `CO[C@H]1C[C@@H]2CC[C@@H](C)[C@@](O)(O2)C(=O)C(=O)N2CCCC[C@H]2C(=O)O[C@H]([C@H](C)C[C@@H]2CC[C@@H](OCCO)[C@H](OC)C2)CC(=O)[C@H](C)/C=C(\C)[C@@H](O)[C@@H](OC)C(=O)[C@H](C)C[C@H](C)/C=C/C=C/C=C/1C` [everolimus]: in assay [1] (kinase IKKβ, compound at 1 μM), the “%-inhibition of IKKβ” value is reported as -3%. Moreover, the “%-inhibition of PRKX” value in assay [2] was -4.49%. In addition, the “%-inhibition of INSR” value in assay [3] is -3.77%. The “%-inhibition of MSSK1” value in assay [4] was -7%. Also, the “%-inhibition of MAP2K5” value in assay [5] is 1.34%. Further, the “%-inhibition of MAP3K1” value in assay [6] is listed as 7%. The “%-inhibition of LOK” value in assay [7] was -9%.

As for `CCN(CC)CCNC(=O)c1c(C)[nH]c(/C=C2\C(=O)Nc3ccc(F)cc32)c1C` [sunitinib], the “%-inhibition of LOK” value in assay [7] turned out to be 92%.

`CC(=O)Nc1cccc(-n2c(=O)n(C3CC3)c(=O)c3c(Nc4ccc(I)cc4F)n(C)c(=O)c(C)c32)c1` [trametinib]: in assay [1] (kinase IKKβ, compound at 1 μM), the “%-inhibition of IKKβ” value is on record as 0.741%. Further, in assay [2], the “%-inhibition of PRKX” value was -1.19%. In addition, the “%-inhibition of INSR” value in assay [3] is -30%. Besides, in assay [4], the “%-inhibition of MSSK1” value is reported as -5%. In assay [5], the “%-inhibition of MAP2K5” value was 13%. The “%-inhibition of MAP3K1” value in assay [6] was found to be 99%. Further, in assay [7], the “%-inhibition of LOK” value came to 12%.

On to `O=S(=O)(c1cccc2cnccc12)N1CCCNCC1` [fasudil], for which, in assay [1] (kinase IKKβ, compound at 1 μM), the “%-inhibition of IKKβ” value is given as 3.71%. Moreover, the “%-inhibition of PRKX” value in assay [2] was 86%. In assay [3], the “%-inhibition of INSR” value is listed as -11%. In assay [4], the “%-inhibition of MSSK1” value is listed as -5.56%. In assay [5], the “%-inhibition of MAP2K5” value was 13%. In addition, the “%-inhibition of MAP3K1” value in assay [6] came to 1.37%. The “%-inhibition of LOK” value in assay [7] came to 11%.

For `N#CC[C@H](C1CCCC1)n1cc(-c2ncnc3[nH]ccc23)cn1` [ruxolitinib], the “%-inhibition of IKKβ” value in assay [1] (1 µM) is reported as 2.26%. In addition, in assay [2], the “%-inhibition of PRKX” value was 16%. Also, in assay [3], the “%-inhibition of INSR” value was found to be 0.837%. Also, in assay [4], the “%-inhibition of MSSK1” value is reported as 6%. Further, the “%-inhibition of MAP2K5” value in assay [5] stood at 7%. Further, in assay [6], the “%-inhibition of MAP3K1” value is recorded as -10%. Besides, the “%-inhibition of LOK” value in assay [7] came out at 3.51%.

For `COc1cc2nccc(Oc3ccc(NC(=O)C4(C(=O)Nc5ccc(F)cc5)CC4)cc3)c2cc1OC` [cabozantinib], the “%-inhibition of IKKβ” value in assay [1] (kinase IKKβ, compound at 1 μM) is listed as -2.35%. Moreover, the “%-inhibition of PRKX” value in assay [2] is reported as -2.42%. For the same molecule, the “%-inhibition of INSR” value in assay [3] came to 35%. Further, the “%-inhibition of MSSK1” value in assay [4] was 32%. The “%-inhibition of MAP2K5” value in assay [5] is 17%. Further, in assay [6], the “%-inhibition of MAP3K1” value was 36%. Further, the “%-inhibition of LOK” value in assay [7] amounted to 96%.

For `CC(C)(C)c1nc(-c2cccc(NS(=O)(=O)c3c(F)cccc3F)c2F)c(-c2ccnc(N)n2)s1` [dabrafenib], in assay [1] (kinase IKKβ, compound at 1 μM), the “%-inhibition of IKKβ” value worked out at 3.71%. In assay [2], the “%-inhibition of PRKX” value is reported as -1.55%. In assay [3], the “%-inhibition of INSR” value came to 7.51%. For the same molecule, the “%-inhibition of MSSK1” value in assay [4] amounted to 2.55%. Further, the “%-inhibition of MAP2K5” value in assay [5] is 70%. Also, in assay [6], the “%-inhibition of MAP3K1” value was -40%.

For the molecule `C[C@@H](Oc1cc(-c2cnn(C3CCNCC3)c2)cnc1N)c1c(Cl)ccc(F)c1Cl` [crizotinib], the “%-inhibition of IKKβ” value in assay [1] (kinase IKKβ, compound at 1 μM) is recorded as -5%. Further, the “%-inhibition of PRKX” value in assay [2] is listed as -7%. The “%-inhibition of MAP2K5” value in assay [5] was determined as 24%. Besides, the “%-inhibition of MAP3K1” value in assay [6] stood at 28%. The “%-inhibition of LOK” value in assay [7] came to 98%.

For the origin of these results see publication PMC3961306, “Comparison of the Cancer Gene Targeting and Biochemical Selectivities of All Targeted Kinase Inhibitors Approved for Clinical Use” (PLoS ONE, 2014).
